# Reference: patent publication US12691101B2, “Compound and method for preventing or treating of respiratory diseases comprising the same as an active ingredient” (YONSEI UNIVERSITY, UNIVERSITY - INDUSTRY FOUNDATION (UIF), priority 2019, dated 2026)
# Key:
# [1] = biological target: T1, human wild-type (WT)-pendrin (Homo sapiens, UniProt O43511); test: Pendrin-mediated Cl^−/OH^− exchange activity in CHO-K1 cells; assay type: cell-based
# T1 construct: expressed in transfected cells
# T1 sequence (O43511 1-780): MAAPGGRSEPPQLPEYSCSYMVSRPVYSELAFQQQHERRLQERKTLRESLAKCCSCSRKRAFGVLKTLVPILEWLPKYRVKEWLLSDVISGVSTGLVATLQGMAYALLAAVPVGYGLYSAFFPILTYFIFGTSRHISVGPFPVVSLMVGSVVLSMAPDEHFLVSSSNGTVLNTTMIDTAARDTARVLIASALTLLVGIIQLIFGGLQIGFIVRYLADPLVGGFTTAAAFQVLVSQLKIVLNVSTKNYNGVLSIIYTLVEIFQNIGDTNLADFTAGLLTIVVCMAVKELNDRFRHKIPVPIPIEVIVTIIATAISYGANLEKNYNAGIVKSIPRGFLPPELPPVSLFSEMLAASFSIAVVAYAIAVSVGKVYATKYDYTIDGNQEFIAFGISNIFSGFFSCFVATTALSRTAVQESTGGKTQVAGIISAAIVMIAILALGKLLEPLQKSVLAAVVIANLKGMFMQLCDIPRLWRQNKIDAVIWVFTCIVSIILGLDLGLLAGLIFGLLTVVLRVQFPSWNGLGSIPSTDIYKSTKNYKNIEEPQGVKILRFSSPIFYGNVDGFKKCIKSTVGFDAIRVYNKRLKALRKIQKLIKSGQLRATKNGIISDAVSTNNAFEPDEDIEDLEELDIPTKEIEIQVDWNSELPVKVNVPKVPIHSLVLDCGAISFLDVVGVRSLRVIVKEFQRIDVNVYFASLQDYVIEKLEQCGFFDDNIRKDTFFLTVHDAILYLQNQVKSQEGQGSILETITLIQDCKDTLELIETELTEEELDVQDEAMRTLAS
# Protocol: For measurement of Cl^−/OH^− exchange activity, intracellular pH (pHi) was measured in WT-pendrin expressing CHO-K1 and HNE cells using pH sensor SNARF5-AM (Molecular Probes). The cells were treated with 5 μM SNARF5-AM for 30 minutes, and then were equipped in a perfusion chamber on the stage of a reverse fluorescence microscope (Nikon, Tokyo, Japan) equipped with a cooled charge-coupled device camera (Zyla sCMOS), image acquisition and analysis software (Meta Imaging Series 7.7). To measure the Cl^−/OH^− exchange activity, HEPES buffer solution was changed to CV-free HEPES buffer solution for generation of an Cl^− gradient driving Cl^− outflow and OH^− inflow of cytosol by pendrin.
# [2] = biological target: T2, hERG (Kv11.1) potassium channel (Homo sapiens, UniProt Q12809); test: hERG potassium channel activity, thallium flux in HEK293T cells; assay type: cell-based
# T2 construct: expressed in transfected cells
# Protocol: (A) The inhibition of mouse pendrin (mPDS)-mediated Cl^−/I^− exchange activity by F56 was measured in CHO-K1 cells (mean±S.E., n=5). The indicated concentration of F56 was pretreated for 10 minutes. (B) Summary of dose-response for inhibition of the human pendrin (hPDS)-mediated (closed circle, FIG. (a), C) and mPDS-mediated (open circle) Cl^−/I^− exchange activity. (C-F) Representative traces of intracellular pH in CHO-K1 cells expressing SLC26A3, SLC26A6, SLC26A7 and SLC26A9 were shown. The application of Cl^− free solution induced intracellular alkalization by Cl^−/HCO3^− exchange. The indicated concentration of F56 was pretreated for 10 minutes. (G) the effect of F56 (100 μM) on the CFTR chloride channel activity was measured in FRT cells expressing human CFTR. […] (H) The effect of F56 (100 μM) on the AN01 chloride channel activity was measured in FRT cells expressing human AN01. […] (I) The effect of F56 on the hERG (Kv11.1) potassium channel activity was measured in HEK293T cells expressing human Kv11.1 (mean±S.E., n=4). […] (J) The effect of F56 on the 5-HT2A channel activity was measured in FRT cells expressing human 5-HT2A (mean±S.E., n=4). […]
# (A) The effect of F10 (30 μM) on the CFTR channel was measured in FRT cells expressing human CFTR and mutant YFP. […] (B) The effect of F10 (30 μM) on the AN01 channel activity was measured in FRT cells expressing human and mutant YFP. […]
# AN01, CFTR and ENaC mRNA = test: Real-time PCR of AN01, CFTR and ENaC mRNA in IL-4-treated HNE cells; assay type: cell-based, human; settings: long-term treatment (F10: 120 hours)
# Protocol: The total messenger RNA (mRNA) was extracted using TRIzol reagent (Invitrogen, Carlsbad, CA, USA), and was reverse-transcribed using a random hexamer primer, an oligo(dT) primer and SuperScript® III reverse transcriptase (Invitrogen). Quantitative real-time PCR was performed using StepOnePlus Real-Time PCR system (Applied Biosystems, Foster City, CA, USA) and Thunderbird SYBR qPCR mix (Tokyobo, Osaka, Japan). Thermal cycling conditions included the initial stage at 95° C. for 5 minutes, and subsequent 40 cycles at 95° C. for 10 seconds, at 55° C. for 20 seconds and at 72° C. for […].
# T2 sequence (Q12809 whole entry): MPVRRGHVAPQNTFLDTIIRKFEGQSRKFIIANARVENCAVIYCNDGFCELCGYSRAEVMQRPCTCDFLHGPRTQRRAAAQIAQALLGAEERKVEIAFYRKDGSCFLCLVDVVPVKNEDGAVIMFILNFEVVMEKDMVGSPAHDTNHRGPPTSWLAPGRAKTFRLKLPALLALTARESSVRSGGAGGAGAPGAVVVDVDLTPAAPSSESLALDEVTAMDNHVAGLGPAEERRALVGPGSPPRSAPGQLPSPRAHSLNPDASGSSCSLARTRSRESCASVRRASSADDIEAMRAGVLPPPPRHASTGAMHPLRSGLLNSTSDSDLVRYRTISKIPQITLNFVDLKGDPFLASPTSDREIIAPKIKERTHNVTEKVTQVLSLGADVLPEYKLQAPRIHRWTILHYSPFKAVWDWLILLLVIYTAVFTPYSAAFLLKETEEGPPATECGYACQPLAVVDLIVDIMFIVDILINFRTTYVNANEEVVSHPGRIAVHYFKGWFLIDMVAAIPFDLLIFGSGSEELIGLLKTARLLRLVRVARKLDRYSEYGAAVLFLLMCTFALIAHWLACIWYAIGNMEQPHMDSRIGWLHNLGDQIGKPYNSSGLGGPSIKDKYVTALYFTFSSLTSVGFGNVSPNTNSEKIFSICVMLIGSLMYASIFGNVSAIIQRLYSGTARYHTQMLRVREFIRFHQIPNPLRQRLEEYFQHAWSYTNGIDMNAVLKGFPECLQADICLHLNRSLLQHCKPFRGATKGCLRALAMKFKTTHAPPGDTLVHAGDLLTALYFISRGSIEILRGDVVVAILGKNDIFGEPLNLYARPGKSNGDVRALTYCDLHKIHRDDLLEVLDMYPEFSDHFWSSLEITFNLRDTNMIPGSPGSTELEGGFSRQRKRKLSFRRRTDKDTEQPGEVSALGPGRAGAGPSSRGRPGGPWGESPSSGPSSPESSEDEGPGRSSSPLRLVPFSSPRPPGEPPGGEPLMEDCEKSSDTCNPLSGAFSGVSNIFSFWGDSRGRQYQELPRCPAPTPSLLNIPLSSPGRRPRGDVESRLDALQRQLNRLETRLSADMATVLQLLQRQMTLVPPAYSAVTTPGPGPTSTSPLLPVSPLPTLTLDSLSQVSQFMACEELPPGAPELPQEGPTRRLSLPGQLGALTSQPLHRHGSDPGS
Compound,inhibition of pendrin Cl^−/OH^− exchange activity [1],effect on hERG channel activity ([2]; pretreated 10 minutes),"mRNA expression of AN01, CFTR and ENaC (AN01, CFTR and ENaC mRNA)",effect on hERG channel activity ([2]; 30 μM)
"CC(C)(C)c1ccc(C2=NC(=Cc3cccs3)C(=O)O2)cc1 [F56, 2-(4-(tert-butyl)phenyl)-4-(thiophen-2-ylmethylene)oxazol-5(4H)-one]",strongly inhibited,not affected,did not change,–
"CC(C)(C)c1ccc(C2=NC(=Cc3ccc[nH]3)C(=O)O2)cc1 [F10, 4-((1H-pyrrol-2-yl)methylene)-2-(4-(tert-butyl)phenyl)oxazol-5 (4H)-one]",strongly inhibit,–,did not show any effect,did not show any effect
